In data set [1] the test system is human glioma (U-87MG) tumor xenograft. The experiment in a line: Human U-87 MG glioblastoma mice model, antitumor efficacy. Format: in vivo. The following applies: SC 30 mg/kg q1d×5 over 2 weeks. The method, then: Tumor growth was followed every other day by measuring tumor length (L) and width (W) using a calliper. Measurements were converted to tumor volumes (TV; mm^3) using the standard formula, TV=(L×W^2)/2. Tumor volume at day n was expressed as relative tumor volume (RTV) according to the following formula RTV=TVn/TV0, where TVn is the tumor volume at day n and TV0 is the tumor volume at day 0. The percentage of tumor growth inhibition (% TGI) was determined by 1−(mean RTV of treated group/mean RTV of control group)×100. […] Statistical analysis was calculated by the two-tailed unpaired t test using the Prism software. […]
The human U-87 MG (ATCC® no. HTB-14™) glioblastoma antitumor efficacy study was performed at INSERM U318 (Grenoble, France). […] On each dosing day, Compound 1 stock solutions (24 and 40 mg/mL in bulk Formulation B11) were diluted with sterile 5% dextrose in water (D5W) to prepare a dosing solution of 6 mg/mL of Compound 1 in ready-to-use Formulation D11 (5% ethanol, 5% PEG400, 15% polysorbate 80, and 75% D5W).
For the human glioblastoma antitumor efficacy study, female athymic (nu/nu) nude mice (6-7 weeks of age) were inoculated SC with 5×10^6 U-87MG cells (day 0). […] Tumor growth inhibition (TGI) was calculated on day 34 post tumor cell inoculation, at which time some animals from the vehicle control group had to be sacrificed due to tumor burden.

Data set [2] relates to human prostate tumor (PC3) xenografts. The experiment in a line: Human PC3 prostate cancer mice model. The class given is in vivo, HRLN male nude mice. The settings on record: Intravenous treatment, 100 mg/kg 5/2/5/2/5. The method, then: The anticancer activity of Compound 1 was tested in a human PC3 prostate model in mice, using formulation D11; at 6, 9 and 10 mg/mL concentrations (see Table 7). HRLN male nude mice (8 weeks of age) were implanted with 1 mm^3 PC3 tumor fragments subcutaneously (sc) in the right flank. Animals were randomized (ten per group) when tumors reach an average size of 80-120 mg and treatment began according to the table below.
Tumor measurements were taken twice weekly using callipers and were converted to tumor mass (in milligrams) using the formula: with^2 (mm)×length (mm)×0.52. Body weights were also recorded twice weekly. Statistical analysis was done using the unpaired two-tailed Student's t test.

The test system of data set [3] is human breast tumor (MDA-MB-231) xenografts. The experiment in a line: Human MDA-MB-231 breast cancer mice model. The following applies: Intravenous treatment, 100 mg/kg 5/2/5/2/5. The class given is in vivo, HRLN female nude mice. The method, then: The antitumor activity of Compound 1 was further tested in a human MD-MB-231 breast cancer model in mice, using formulation D11 at 6 and 10 mg/mL concentrations (see Table 8). HRLN female nude mice (8 weeks of age) were treated with 5×10^6 MDA-MB-231 tumor cells (sc) in the right flank. Animals were randomized (ten per group) when tumors reach an average size of 80-120 mg and treatment began according to the table below.
Tumor measurements were taken twice weekly using calipers and were converted to tumor mass (in milligrams) using the formula: with^2 (mm)×length (mm)×0.52. Body weights were also recorded twice weekly. Statistical analysis was done using the unpaired two-tailed Student's t test.

Data set [4] is described as follows: In vivo toxicity of Compound 1 in rats. The settings on record: rat, single bolus intravenous administration, healthy rats. An excerpt: The toxicity was due to the vehicle and was attributed to smaller size of infusion vessels, and concurrent catheter tract infection.
Data set [5] in a line: Population pharmacokinetic analysis (NONMEM), mouse. Format: in vivo. The settings on record: 30 mg/kg; for half-life: CD1, mouse, plasma, iv; for clearance / Vd: CD1, plasma, Mouse (IV); for Vd: read-out: Vss. The source says: (§1) Plasma concentrations of Compound 1 were obtained from mice, rats, and monkeys following intravenous injection or continuous infusion. Compound 1 pharmacokinetic parameters in mice, rats, and monkeys were estimated using population pharmacokinetic analysis, a function of the software program NONMEM™ (version 5). Typical population pharmacokinetic parameters for Compound 1 in humans were extrapolated from allometric equations that were derived from pharmacokinetic parameters estimated in the three animal species. […] A two-compartment model with a first-order elimination from the central compartment adequately described Compound 1 plasma concentration-time profiles following intravenous bolus injection (30 mg/kg) in mice and rats, 7-day continuous infusion in rats (50 to 170 mg/kg/day), and 14-day continuous infusion in monkeys (5 to 30 mg/kg/day).

Data set [6] can be described thus: Population pharmacokinetic analysis (NONMEM), rat. The class given is in vivo. The following applies: plasma, Rat (IV + CIV); for Vd: read-out: Vss; for half-life: rat, iv.
Description: as §1

The mark [7] stands for this setting: population PK, read-out: t1/2, α (converted).
Where [8] appears, read: population PK, read-out: t1/2, β (converted).

Turning to `CC(C)=CCC/C(C)=C/CC/C(C)=C/CN1C(=O)c2cccc(O)c2Nc2c(O)cc(O)cc21` [Compound 1, 10-farnesyl-4,6,8-trihydroxy-dibenzodiazepin-11-one], the “tolerability of dose regimen” value in data set [1] was “well tolerated”. The “antitumor activity (in words)” value in data set [2] and in data set [3] was “did not result in activity” throughout. The compound further returned an MTD in data set [4] of 85 mg/kg. The half-life is 0.078 h in data set [5] (setting [7]), 2.49 h in data set [5] (setting [8]), 0.075 h in data set [6] (setting [7]) and 2.5 h in data set [6] (setting [8]). Further, the clearance in data set [5] (WT 0.022 Kg) was 0.533 mL/min; in data set [5] (population PK), 24.8 mL/min/kg; in data set [6] (WT 0.225 Kg), 4.08 mL/min; in data set [6] (population PK) it was 18.2 mL/min/kg. Besides, the Vd in data set [5] (WT 0.022 Kg) turned out to be 0.009 L; in data set [5] (population PK) it was 0.401 L/kg; in data set [6] (WT 0.225 Kg), 0.081 L; in data set [6] (population PK), 0.362 L/kg.

These data come from patent publication US20060276436A1, “Farnesyl dibenzodiazepinone formulation” (Ecopia BioSciences, Inc., priority 2005, published 2006).
